The record followed here is ChEMBL document CHEMBL1128803 (Bioorg Med Chem Lett, 1995).

Common to all, as to assay type: protein assay
Assay [1] has as its target Phosphodiesterase 4 (Homo sapiens, UniProt P27815+Q08499+Q07343+Q08493). The assay can be described thus: Inhibition of Phosphodiesterase 4.
The target of assay [2] is Phosphodiesterase 4 (Mus musculus, UniProt Q8VBU5+Q3UEI1+O89084+Q01063). Briefly: Inhibition of [3H]rolipram binding to Phosphodiesterase 4 (PDE IV).
In assay [3] the target is Phosphodiesterase 3 (Homo sapiens) (UniProt Q14432+Q13370). The assay can be described thus: Inhibition of Phosphodiesterase 3 (PDE III) at 100 uM.

As a reminder, the IC50 is the concentration at which inhibition is half-maximal. A high value points to a need for much substance. Usually inhibition stands for the drop in the measured response relative to a control, in per cent.

Consider `COc1ccc(/C=C2\C(=O)Nc3ccc(Br)cc32)cc1OC1CC2CCC1C2` (stereo unspecified), for which the 50% inhibitory concentration (IC50) on Phosphodiesterase 4 [1] was determined as 1.7 µM; at Phosphodiesterase 4 [2] it was 50 µM. The inhibition in assay [3] was found to be 17%.
Regarding `COc1ccc(/C=C2/C(=O)N(C)c3ccc([N+](=O)[O-])cc32)cc1OC1CC2CCC1C2` (stereo unspecified), the results for the half-maximal inhibitory concentration (IC50) on Phosphodiesterase 4 [1] and on Phosphodiesterase 4 [2] were 7.1 µM and 66 µM, respectively. The inhibition in assay [3] was found to be 25%.
Regarding `COc1ccc(/C=C2\C(=O)Nc3ccc([N+](=O)[O-])cc32)cc1OC1CC2CCC1C2` (stereo unspecified), the concentration for half-maximal inhibition (IC50) came to 1.2 µM on Phosphodiesterase 4 [1] and 62 µM at Phosphodiesterase 4 [2]. Further, the inhibition in assay [3] is 18%.
As to `COc1ccc(/C=C2\C(=O)N(C)c3ccc(Cl)cc32)cc1OC1CC2CCC1C2` (stereo unspecified), the half-inhibitory concentration (IC50) was 3.4 µM at Phosphodiesterase 4 [1] and 58 µM on Phosphodiesterase 4 [2]. The inhibition in assay [3] was -9%.
As for `COc1ccc(/C=C2\C(=O)Nc3ccccc32)cc1OC1CC2CCC1C2` (stereo unspecified), the IC50 on Phosphodiesterase 4 [1] stood at 3.7 µM; on Phosphodiesterase 4 [2] it was 3.2 µM.
Turning to `COc1ccc(/C=C2/C(=O)Nc3ccccc32)cc1OC1CC2CCC1C2` (stereo unspecified), the figures for the IC50 on Phosphodiesterase 4 [1] and at Phosphodiesterase 4 [2] were 0.48 µM and 4.6 µM, respectively. Besides, in assay [3], the inhibition is 42%.
On to `COc1ccc(C2CNC(=O)C2)cc1OC1CCCC1` (stereo unspecified), for which the inhibition in assay [3] was found to be 23%.
For the molecule `COc1ccc(/C=C2\C(=O)N(C)c3ccc(Br)cc32)cc1OC1CC2CCC1C2` (stereo unspecified), the IC50 at Phosphodiesterase 4 [1] turned out to be 3.6 µM; at Phosphodiesterase 4 [2], 57 µM. Besides, in assay [3], the inhibition was -7%.
